# Assay results published in PMC5791972 (PLoS ONE, 2018).
# “Also recorded” adds a separate entry of the source. Read-outs that look alike come from different tables or passages of the source.
# Key:
# AR (h) = biological target: T1, AR (h) (Homo sapiens, UniProt P10275, T878A); type: binding; conditions: 1.0E-06 M
# T1 construct: AR (h) LNCaP cells [3H]methyltrienolone; host or cells: LNCaP cells (cytosol)
# T1 sequence (P10275 1-920 T878A): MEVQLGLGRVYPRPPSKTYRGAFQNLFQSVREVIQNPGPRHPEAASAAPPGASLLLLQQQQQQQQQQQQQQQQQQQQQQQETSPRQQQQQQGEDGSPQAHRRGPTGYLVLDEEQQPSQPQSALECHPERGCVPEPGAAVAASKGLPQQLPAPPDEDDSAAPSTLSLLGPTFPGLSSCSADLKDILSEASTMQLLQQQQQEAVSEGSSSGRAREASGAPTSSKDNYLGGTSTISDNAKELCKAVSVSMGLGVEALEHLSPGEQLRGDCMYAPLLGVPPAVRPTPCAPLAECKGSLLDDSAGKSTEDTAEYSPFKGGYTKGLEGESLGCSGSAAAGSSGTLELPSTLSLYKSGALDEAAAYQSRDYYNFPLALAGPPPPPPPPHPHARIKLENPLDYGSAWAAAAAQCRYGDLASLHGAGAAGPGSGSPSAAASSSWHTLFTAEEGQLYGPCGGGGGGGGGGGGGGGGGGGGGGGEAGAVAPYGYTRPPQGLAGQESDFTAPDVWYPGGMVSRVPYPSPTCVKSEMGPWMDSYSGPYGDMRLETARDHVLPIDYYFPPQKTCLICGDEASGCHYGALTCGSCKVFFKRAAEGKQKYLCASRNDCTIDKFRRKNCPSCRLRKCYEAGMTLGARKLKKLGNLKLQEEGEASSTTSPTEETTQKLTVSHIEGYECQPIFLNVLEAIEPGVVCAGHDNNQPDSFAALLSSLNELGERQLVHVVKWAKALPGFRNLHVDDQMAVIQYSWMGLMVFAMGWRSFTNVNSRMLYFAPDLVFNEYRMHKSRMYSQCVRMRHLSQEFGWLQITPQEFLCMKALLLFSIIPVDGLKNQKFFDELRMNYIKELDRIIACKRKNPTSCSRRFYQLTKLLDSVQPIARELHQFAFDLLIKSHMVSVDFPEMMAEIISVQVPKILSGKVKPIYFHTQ
# C57BL/6 (CSD) mice = experiment: Chronic social defeat and fear learning and memory; type: in vivo, mouse; conditions: 1 mg/kg oral
# BLT1 (LTB4) (h) = biological target: T2, BLT1 (LTB4) (h) (Homo sapiens, UniProt Q15722); type: binding; conditions: 1.0E-06 M
# T2 construct: host or cells: CHO cells
# BZD (central) = type: binding, rat; conditions: 1.0E-06 M
# 5-HT2B (h) = biological target: T3, 5-HT2B (h) (Homo sapiens, UniProt P41595); type: binding; conditions: 1.0E-06 M
# T3 construct: host or cells: CHO cells
# CCK2 (CCKB) (h) = CCK2 (CCKB) (h) (Homo sapiens, UniProt P32239); type: binding; conditions: 1.0E-06 M
# β1 (h) = biological target: T4, β1 (h) (Homo sapiens, UniProt P08588); type: binding; conditions: 1.0E-06 M
# T4 construct: host or cells: HEK-293 cells
# MT1 (ML1A) (h) = biological target: T5, MT1 (ML1A) (h) (Homo sapiens, UniProt P48039); type: binding; conditions: 1.0E-06 M
# T5 construct: host or cells: CHO cells
# MMP-9 (h) = MMP-9 (h) (Homo sapiens, UniProt P14780); experiment: biochemical; type: biochemical; conditions: 1.0E-06 M
# V2 (h) = biological target: T6, V2 (h) (Homo sapiens, UniProt P30518); type: binding; conditions: 1.0E-06 M
# T6 construct: host or cells: CHO cells
# ETA (h) = biological target: T7, ETA (h) (Homo sapiens, UniProt P25101); type: binding; conditions: 1.0E-06 M
# T7 construct: host or cells: CHO cells
# T7 sequence (P25101 21-427): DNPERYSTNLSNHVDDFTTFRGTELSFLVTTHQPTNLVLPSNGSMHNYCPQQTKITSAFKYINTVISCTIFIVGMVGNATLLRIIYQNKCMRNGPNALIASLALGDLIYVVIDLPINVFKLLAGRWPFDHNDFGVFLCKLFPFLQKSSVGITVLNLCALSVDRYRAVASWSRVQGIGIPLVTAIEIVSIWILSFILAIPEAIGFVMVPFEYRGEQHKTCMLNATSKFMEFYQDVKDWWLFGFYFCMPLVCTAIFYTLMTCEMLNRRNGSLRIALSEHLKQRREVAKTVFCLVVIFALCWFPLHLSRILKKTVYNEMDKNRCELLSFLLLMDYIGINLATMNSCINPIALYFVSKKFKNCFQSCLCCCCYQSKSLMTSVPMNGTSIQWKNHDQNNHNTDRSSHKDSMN
# Lyn A kinase (h) = Lyn A kinase (h) (Homo sapiens, UniProt P07948); experiment: biochemical; conditions: 1.0E-06 M
# A1 (h) = biological target: T8, A1 (h) (Homo sapiens, UniProt P30542); type: binding
# T8 sequence (P30542 1-326): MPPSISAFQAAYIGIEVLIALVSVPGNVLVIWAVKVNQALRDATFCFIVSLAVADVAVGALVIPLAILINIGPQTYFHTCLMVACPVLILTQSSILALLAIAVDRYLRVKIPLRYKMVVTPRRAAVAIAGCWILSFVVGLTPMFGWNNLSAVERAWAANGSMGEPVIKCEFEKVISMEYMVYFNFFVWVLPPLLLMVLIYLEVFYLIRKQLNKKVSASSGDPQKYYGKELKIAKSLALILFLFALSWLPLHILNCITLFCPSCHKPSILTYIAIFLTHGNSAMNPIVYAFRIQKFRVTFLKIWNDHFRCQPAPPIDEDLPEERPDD
# Chain of CCK2 (CCKB) (h) (P32239 whole entry): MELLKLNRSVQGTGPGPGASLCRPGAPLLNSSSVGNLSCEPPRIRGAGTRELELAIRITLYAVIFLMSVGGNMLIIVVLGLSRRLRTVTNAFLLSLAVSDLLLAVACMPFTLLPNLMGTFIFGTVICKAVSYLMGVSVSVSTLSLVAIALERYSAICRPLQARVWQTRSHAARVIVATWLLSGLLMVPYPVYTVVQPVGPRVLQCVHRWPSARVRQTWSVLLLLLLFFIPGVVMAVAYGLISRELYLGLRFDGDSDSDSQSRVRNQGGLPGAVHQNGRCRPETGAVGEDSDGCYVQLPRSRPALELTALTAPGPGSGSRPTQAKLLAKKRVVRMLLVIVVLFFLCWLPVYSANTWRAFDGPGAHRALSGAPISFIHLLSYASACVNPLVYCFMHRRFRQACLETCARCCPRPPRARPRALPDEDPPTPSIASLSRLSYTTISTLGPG
# Chain of Lyn A kinase (h) (P07948 whole entry): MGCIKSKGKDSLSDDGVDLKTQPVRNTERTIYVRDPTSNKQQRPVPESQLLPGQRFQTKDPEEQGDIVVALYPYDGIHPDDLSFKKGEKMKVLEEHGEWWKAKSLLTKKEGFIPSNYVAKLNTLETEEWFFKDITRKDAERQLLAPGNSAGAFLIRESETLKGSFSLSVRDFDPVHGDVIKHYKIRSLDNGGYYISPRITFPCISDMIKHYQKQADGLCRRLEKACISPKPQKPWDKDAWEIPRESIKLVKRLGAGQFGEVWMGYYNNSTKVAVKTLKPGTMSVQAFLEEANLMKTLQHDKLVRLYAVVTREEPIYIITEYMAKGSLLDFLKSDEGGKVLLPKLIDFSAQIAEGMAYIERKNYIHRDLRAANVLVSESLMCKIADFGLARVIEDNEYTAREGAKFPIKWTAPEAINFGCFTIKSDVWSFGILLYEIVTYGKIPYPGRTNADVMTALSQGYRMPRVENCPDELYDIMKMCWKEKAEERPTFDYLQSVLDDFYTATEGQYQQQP
# Chain of MMP-9 (h) (P14780 94-707): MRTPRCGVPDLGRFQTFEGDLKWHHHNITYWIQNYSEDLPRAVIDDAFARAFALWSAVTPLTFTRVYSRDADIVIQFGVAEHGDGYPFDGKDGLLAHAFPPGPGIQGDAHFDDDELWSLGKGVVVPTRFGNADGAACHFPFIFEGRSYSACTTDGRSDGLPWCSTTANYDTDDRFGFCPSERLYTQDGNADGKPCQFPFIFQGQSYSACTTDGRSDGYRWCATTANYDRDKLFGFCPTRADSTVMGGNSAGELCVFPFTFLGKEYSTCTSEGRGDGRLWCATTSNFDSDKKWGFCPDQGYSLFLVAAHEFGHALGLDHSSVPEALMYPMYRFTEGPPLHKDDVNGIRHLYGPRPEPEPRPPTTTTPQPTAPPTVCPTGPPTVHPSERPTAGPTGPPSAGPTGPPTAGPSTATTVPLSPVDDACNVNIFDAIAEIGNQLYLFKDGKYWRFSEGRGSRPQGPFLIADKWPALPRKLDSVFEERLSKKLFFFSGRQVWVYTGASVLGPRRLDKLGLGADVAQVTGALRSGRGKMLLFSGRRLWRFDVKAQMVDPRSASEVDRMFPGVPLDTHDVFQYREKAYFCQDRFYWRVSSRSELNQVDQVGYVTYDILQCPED
# T3 sequence (P41595 whole entry): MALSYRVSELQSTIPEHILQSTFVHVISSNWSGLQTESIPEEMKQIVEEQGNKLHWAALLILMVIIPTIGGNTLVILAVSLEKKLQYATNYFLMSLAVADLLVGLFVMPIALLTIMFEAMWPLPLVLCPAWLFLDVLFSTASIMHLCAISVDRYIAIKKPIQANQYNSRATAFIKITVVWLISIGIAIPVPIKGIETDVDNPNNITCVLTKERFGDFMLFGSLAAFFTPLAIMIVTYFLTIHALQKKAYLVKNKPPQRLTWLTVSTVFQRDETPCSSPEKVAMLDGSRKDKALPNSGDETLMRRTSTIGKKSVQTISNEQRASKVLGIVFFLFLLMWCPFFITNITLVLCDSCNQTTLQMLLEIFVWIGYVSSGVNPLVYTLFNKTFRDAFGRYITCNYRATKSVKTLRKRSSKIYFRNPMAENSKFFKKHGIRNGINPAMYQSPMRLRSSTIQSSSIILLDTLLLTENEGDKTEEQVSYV
# T4 sequence (P08588 whole entry): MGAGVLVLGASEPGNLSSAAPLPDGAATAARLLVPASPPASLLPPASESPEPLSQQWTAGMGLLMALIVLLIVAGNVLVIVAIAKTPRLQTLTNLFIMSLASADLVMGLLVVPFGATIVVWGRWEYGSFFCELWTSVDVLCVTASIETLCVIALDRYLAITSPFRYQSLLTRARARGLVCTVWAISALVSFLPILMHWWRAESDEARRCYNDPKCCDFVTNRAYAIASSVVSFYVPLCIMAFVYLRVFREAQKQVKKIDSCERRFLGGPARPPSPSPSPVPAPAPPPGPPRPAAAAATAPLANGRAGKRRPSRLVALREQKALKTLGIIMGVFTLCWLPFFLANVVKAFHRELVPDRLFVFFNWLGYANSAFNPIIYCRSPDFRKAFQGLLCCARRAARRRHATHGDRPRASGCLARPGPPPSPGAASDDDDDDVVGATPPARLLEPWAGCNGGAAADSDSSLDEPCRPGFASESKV
# T5 sequence (P48039 whole entry): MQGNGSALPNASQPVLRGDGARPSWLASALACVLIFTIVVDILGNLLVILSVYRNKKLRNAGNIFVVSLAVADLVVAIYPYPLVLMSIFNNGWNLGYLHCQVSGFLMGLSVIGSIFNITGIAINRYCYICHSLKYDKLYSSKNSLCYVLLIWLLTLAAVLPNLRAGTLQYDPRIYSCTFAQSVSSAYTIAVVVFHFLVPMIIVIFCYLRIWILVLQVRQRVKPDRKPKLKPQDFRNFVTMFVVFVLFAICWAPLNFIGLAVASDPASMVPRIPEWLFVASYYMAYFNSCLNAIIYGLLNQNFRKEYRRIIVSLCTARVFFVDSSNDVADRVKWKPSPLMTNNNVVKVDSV
# T2 sequence (Q15722 whole entry): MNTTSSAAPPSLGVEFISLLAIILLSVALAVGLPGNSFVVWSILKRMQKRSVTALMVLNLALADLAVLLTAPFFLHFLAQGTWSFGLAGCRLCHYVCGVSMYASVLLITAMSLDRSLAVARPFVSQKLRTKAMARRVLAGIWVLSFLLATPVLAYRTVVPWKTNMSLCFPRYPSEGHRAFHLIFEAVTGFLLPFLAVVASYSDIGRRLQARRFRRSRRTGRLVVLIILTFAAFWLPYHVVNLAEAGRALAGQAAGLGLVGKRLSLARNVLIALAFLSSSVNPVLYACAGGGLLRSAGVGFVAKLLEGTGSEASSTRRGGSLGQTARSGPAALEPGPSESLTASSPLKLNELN
# T6 sequence (P30518 whole entry): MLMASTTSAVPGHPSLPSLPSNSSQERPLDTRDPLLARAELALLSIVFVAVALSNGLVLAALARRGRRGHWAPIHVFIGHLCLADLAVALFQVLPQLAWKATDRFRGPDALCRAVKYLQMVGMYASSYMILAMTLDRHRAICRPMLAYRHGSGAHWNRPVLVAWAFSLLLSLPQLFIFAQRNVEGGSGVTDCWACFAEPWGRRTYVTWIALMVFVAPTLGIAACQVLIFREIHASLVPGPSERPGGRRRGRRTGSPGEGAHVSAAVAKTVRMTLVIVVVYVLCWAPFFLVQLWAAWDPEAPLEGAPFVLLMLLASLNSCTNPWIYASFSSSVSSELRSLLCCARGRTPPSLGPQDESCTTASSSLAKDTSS
structure (smiles),measurement,setting,value
Cn1c(=O)n(CCCO)c(=O)c2c1nc(Oc1cccc(Cl)c1)n2Cc1ccc(Cl)cc1 [HC-070],inhibition at 1 µM,AR (h); read-out: % Inhibition 1st,11.1%
same,inhibition at 1 µM,AR (h); read-out: % Inhibition 2nd,3.2%
same,inhibition at 1 µM,AR (h); read-out: % Inhibition Mean,7.1%
same,CS fear memory in CSD mice,C57BL/6 (CSD) mice,tended to reduce
same,context fear memory in CSD mice,C57BL/6 (CSD) mice,significantly reduced
same,"freezing in inter-trial intervals between CS presentations, CSD mice",C57BL/6 (CSD) mice,ameliorated to the level of control mice; also recorded: reduced fear memory in CSD mice
Cn1c(=O)n(CCCO)c(=O)c2c1nc(Oc1cccc(OC(F)(F)F)c1)n2Cc1ccc(Cl)cc1 [HC-608],inhibition at 1 µM,BLT1 (LTB4) (h); read-out: % Inhibition 1st,-2.9%
same,inhibition at 1 µM,BLT1 (LTB4) (h); read-out: % Inhibition 2nd,13.4%
same,inhibition at 1 µM,BLT1 (LTB4) (h); read-out: % Inhibition Mean,5.3%
same,% Inhibition 1st,BZD (central),-3%
same,% Inhibition 2nd,BZD (central),-31.5%
same,% Inhibition Mean,BZD (central),-17.3%
same,inhibition at 1 µM,5-HT2B (h); read-out: % Inhibition 1st,15.9%
same,inhibition at 1 µM,5-HT2B (h); read-out: % Inhibition 2nd,15.8%
same,inhibition at 1 µM,5-HT2B (h); read-out: % Inhibition Mean,15.9%
same,inhibition at 1 µM,CCK2 (CCKB) (h); read-out: % Inhibition 1st,-13.8%
same,inhibition at 1 µM,CCK2 (CCKB) (h); read-out: % Inhibition 2nd,-0.7%
same,inhibition at 1 µM,CCK2 (CCKB) (h); read-out: % Inhibition Mean,-7.2%
same,inhibition at 1 µM,β1 (h); read-out: % Inhibition 1st,-14.5%
same,inhibition at 1 µM,β1 (h); read-out: % Inhibition 2nd,-1.8%
same,inhibition at 1 µM,β1 (h); read-out: % Inhibition Mean,-8.1%
same,inhibition at 1 µM,MT1 (ML1A) (h); read-out: % Inhibition 1st,2.2%
same,inhibition at 1 µM,MT1 (ML1A) (h); read-out: % Inhibition 2nd,-0.9%
same,inhibition at 1 µM,MT1 (ML1A) (h); read-out: % Inhibition Mean,0.7%
same,inhibition at 1 µM,MMP-9 (h); read-out: % Inhibition 1st,8.7%
same,inhibition at 1 µM,MMP-9 (h); read-out: % Inhibition 2nd,17.2%
same,inhibition at 1 µM,MMP-9 (h); read-out: % Inhibition Mean,13%
same,inhibition at 1 µM,V2 (h); read-out: % Inhibition 1st,8.6%
same,inhibition at 1 µM,V2 (h); read-out: % Inhibition 2nd,5.7%
same,inhibition at 1 µM,V2 (h); read-out: % Inhibition Mean,7.1%
same,inhibition at 1 µM,ETA (h); read-out: % Inhibition 1st,-33.9%
same,inhibition at 1 µM,ETA (h); read-out: % Inhibition 2nd,6.7%
same,inhibition at 1 µM,ETA (h); read-out: % Inhibition Mean,-13.6%
same,inhibition at 1 µM,Lyn A kinase (h); read-out: % Inhibition 1st,13.7%
same,inhibition at 1 µM,Lyn A kinase (h); read-out: % Inhibition 2nd,5.5%
same,inhibition at 1 µM,Lyn A kinase (h); read-out: % Inhibition Mean,9.6%
same,inhibition at 1 µM,"A1 (h); 1.0E-06 M, read-out: % Inhibition 1st",22.5%
same,inhibition at 1 µM,"A1 (h); 1.0E-06 M, read-out: % Inhibition Mean",17.4%
same,inhibition at 1 µM,A1 (h); read-out: % Inhibition 2nd,12.3%
